From patent publication US10350168B2, “Dermal delivery compositions comprising active agent-calcium phosphate particle complexes and methods of using the same” (Laboratory Skin Care, Inc., priority 2009, dated 2019)
Values joined by “and” are separate entries in the source; they are usually repeats but may differ in a detail not shown here. Equal values may be shown once. Blank lines part the entries; values can stand above or below the molecule they belong to.

Experiments:
[1] = Optimum pH for producing active agent-calcium phosphate complexes; format: physicochemical
Text: In the following tables, the specific solvent systems are examples of solvent systems that may be used.

[2] = Argireline binding to calcium phosphate particles with or without sodium lauryl sulfate pretreatment; format: physicochemical
Method: • Argireline to calcium phosphate particles was pretreated with sodium lauryl sulfate Materials: • Calcium phosphate particles • Argireline, (Acetyl Hexapeptide-8), Lipotec S.A. • Sodium lauryl sulfate (SLS), Colonial Chemical, Inc. Methods: • i. Argireline was dissolved in water as a 10 mg/ml solution. • ii. Calcium phosphate particles were mixed with 10 ml of 0.1% SLS for 5 min. […] The pellet was re-suspended in 20 ml water, centrifuged at 2000×g for 10 min, and the washing supernatant was discarded. The washing step was repeated twice. The water contained in the pellet was determined. The final pellet was used in the binding study. • iii. Calcium phosphate particles (SLS treated or no SLS treatment) were mixed with water. HCl (or NaOH) was added to adjust the pH of Calcium phosphate particles suspension to targeted pH including neutral and pH˜10. • iv. Argireline stock at 10 mg/ml was added to each binding suspensions to be a final concentration of 0.5 mg/ml. After the suspension was mixed for 30 min, the final pH was measured. • v. The binding suspensions were centrifuged at 2000×g for 10 min in the bench top centrifuge. The supernatants were analyzed with Refractive Index detector connected to the Shimadzu HPLC 20A system to quantify the free Argireline in the solution. A size-exclusion HPLC method was developed to quantify Argireline in the supernatants of the binding mixtures. […] The mobile phase was 100% water, and eluted at a rate of 1 ml/min. The eluent was monitored at 205 nm or by a refractive index detector (Shimadzu, Model No. RID-10A). Argireline was observed as a major peak in the chromatogram with retention time of about 14 min. The quantification of Argireline was achieved by external standard calibration. • vi. The Argireline bound was then calculated by subtracting the amount of Argireline detected in the supernatant from the total initial amount in the binding suspension.

[3] = Sodium Tocopheryl Phosphate binding to and release from calcium phosphate particles (UV 286 nm); format: physicochemical
Method: • Calcium phosphate particles • Sodium Tocopheryl Phosphate (TPNa), Showa Denko KK • Ethanol, Fisher Scientific, Product No. AC615090020 Methods: • i. 20 mg of TPNa was dissolved in 40 ml of water by gently mixing (0.5 mg/ml). • ii. 3 g of calcium phosphate particles was mixed with 30 ml of TPNa solution at 0.5 mg/ml, and mixed for 30 min. • iii. The binding suspension was centrifuged at 2000×g for 10 min. The supernatant was transferred to new tube, and centrifuge again at 2000×g for 10 min to clarify. The final supernatant was analyzed with an UV spectrophotometer at 286 nm to quantitate free TPNa and calculate the binding. Approximately 100% of TPNa in the binding suspension was attached to calcium phosphate particles. • iv. The pellet of TPNa calcium phosphate complex was re-suspended in 60% ethanol to release the bound TPNa. • v. The release suspension in 60% ethanol was centrifuged at 2000×g for 10 min. The supernatant was analyzed with an UV spectrophotometer at 286 nm to quantitate free TPNa released.

[4] = Tape-stripping analysis of topical application of active-calcium phosphate complexes; format: in vivo; conditions: human forearm, ten tape strips
Method: The purpose of this study was to detect the distribution of actives in the stratum corneum following topical application of the active-calcium phosphate particles • Method: The distribution of STAY C50 within the stratum corneum was assessed by serial tape stripping of the skin to which a STAY C50-calcium phosphate particle formulation was applied. An application site on the forearm of a human subject was marked and 200 μl of the formulation spread by spatula. The site was allowed to dry for 10 minutes and then followed by ten pre-weighed tape stripping using strips of (3 in^2) applied to the application site. STAY C50 was extracted from the tape strips by sonicating the samples in water for 30 minutes and analyzing the samples by HPLC. […] An application site on the forearm of a human subject was marked and 200 μl of the formulation spread by spatula. The site was allowed to dry for 10 minutes and then followed by ten pre-weighed tape stripping using strips of (3 in^2) applied to the application site. Lysozyme was extracted from the tape strips by sonicating the samples in water for 30 minutes and analyzing the samples by HPLC. Lysozyme was detected to a depth of 6 tape strips (FIG. 10). 5. Controlled Slow Release of Active Agents by Franz Cell • Purpose: The purpose of this study was to detect riboflavin from riboflavin attached to calcium phosphate particles. […]

[5] = Adapalene saturated solutions in ethanol and DMSO; format: physicochemical
Method: (§1) • Calcium phosphate particles • Adapalene, Sekhsaria Chemicals Limited, India • DMSO, Fisher Scientific, Product No. D159-4 • Ethanol, Fisher Scientific, Product No. AC61511-0010 Methods: • i. […] The suspensions were mixed for 30 min, and centrifuged at 2000×g for 10 min in a bench top centrifuge. • iv. The absorbance of supernatants were measured at 319 nm (the detection wavelength for Adapalene) by UV spectrophotometer. • v. […]

[6] = Influence of solvent on binding of Adapalene to calcium phosphate particles (UV 319 nm); format: physicochemical
Method: as §1

[7] = pH dependent release of lysozyme from lysozyme calcium phosphate complexes; format: physicochemical; conditions: flow 1 mL/hr, 8 hours
Method: In the stratum corneum, the pH ranges from approximately 4.3 to 5.0 with pH […] with stratum corneum depth. To study calcium phosphate particle release active agent at conditions analogous to skin, two lysozyme calcium phosphate complexes were exposed to buffers of ph 4.8 (0.5 M sodium acetate) and 7.0 (10 mM Bis Tris) for 8 hours. The buffers flowed through the samples at a rate of 1 mL/hr and were collected hourly and analyzed for lysozyme release by monitoring the peak at 280 nm by UV spectrometer. An equivalent mass of lysozyme Calcium phosphate particles complex was vortexed in pH 4.8 buffer to estimate the total available lysozyme in the sample.

[8] = Lysozyme binding to calcium phosphate particles (UV 280 nm); format: physicochemical; conditions: pH 6.83
Method: • Calcium phosphate particles • Lysozyme, MP biomedicals LLC. Product No. ICN10083405 • Phosphoric acid, Fisher Scientific, Product No. A260500 Methods: • i. 364.7 mg of Lysozyme as dissolved in 18.01 ml of water (20.25 mg/ml). • ii. 0.8 g of calcium phosphate particles were mixed with 4 ml of water, and the pH of the suspension was adjusted to neutral with diluted phosphoric acid. • iii. 4 ml of Lysozyme solution (20.25 mg/ml) was added to the suspension of calcium phosphate particles to achieve a final concentration of 10.124 mg/ml, and a final volume of 8 ml. The final pH was measured. • iv. The suspension was mixed for 30 min, and centrifuged at 2000×g for 10 min in a bench top centrifuge. • v. The absorbance of supernatant was measured at 280 nm (the detection wavelength for Lysozyme) by UV spectrophotometer. • vi. […]

[9] = Influence of pH on binding of Salicylic acid to calcium phosphate particles (UV 297 nm); format: physicochemical
Method: • Calcium phosphate particles • Salicylic acid, Fisher Scientific, Part No. A277-500 Methods: • i. 23.2 mg of Salicylic acid was dissolved in 1 ml of ethanol. • ii. 4 g of calcium phosphate particles were suspended in 39.8 ml of water and the pH was adjusted close to the targeted pH with HCl. • iii. 0.2 ml of Salicylic acid solution (23.2 mg/ml) was mixed in the suspension of calcium phosphate particles. • iv. The pH was adjusted to each of the target pH values (11.36, 8.34, 7.47, 7.07, 5.99) with HCl. • v. At each pH, a 4.8 ml sample was taken from the suspension. All the samples were centrifuged separately at 2000×g for 10 min. • vi. The absorbance of supernatant was measured at 297 nm (the detection wavelength for Salicylic acid) by UV spectrophotometer. • vii. […]

[10] = Stability (activity) of ascorbic acid at 50° C. with and without calcium phosphate particles; format: physicochemical; conditions: for activity of ascorbic acid, 2 um: bound to 2 μm calcium phosphate particles; for activity of ascorbic acid, Control: without calcium phosphate particles
Method: 11.9 mg of ascorbic acid was dissolved in 30 ml of water. 2 g of 2 μm calcium phosphate particles were suspended in 19.5 ml of water and the pH was adjusted to pH 7.14 with HCl. 0.5 ml of ascorbic acid solution (0.40 mg/ml) was mixed in the suspension of calcium phosphate particles, which reduced the pH to 7.05. The suspension (pH 7.05) of calcium phosphate particles including 10 μg/ml of ascorbic acid was incubated at 50° C. for 0.5 to 5 hours. The heat-denaturation of ascorbic acid was terminated by cooling the suspension in an ice bath for 15 minutes. In order to release bound ascorbic acid from calcium phosphate particles to measure the stabilization effect, the pH of each suspension was adjusted to pH 5 with HCl and centrifuged at 3,000 rpm for 10 minutes. The supernatant obtained was measured at 265 nm. As a control, a 10 μg/ml of ascorbic acid solution was also incubated and measured by the same procedures without calcium phosphate particles. The activity of ascorbic acid was calculated by the following formula: The activity of ascorbic acid (%)=(A265nm of the supernatant after incubation/A265nm of the ascorbic acid before incubation)×100 The same procedures were repeated with 10 μm calcium phosphate particles. b. Results

[11] = Franz cell transdermal delivery through pig skin; format: in vitro ADME; conditions: for penetration through skin (riboflavin metabolite in receptor fluid): 8 and 16 hours
Method: Controlled Slow Release of Active Agents by Franz Cell • Purpose: The purpose of this study was to detect riboflavin from riboflavin attached to calcium phosphate particles. Methods: • Circular 6 cm^2 discs of full-thickness pig skin were cut from a larger abdominal specimen. Fat was removed from the dermis-side by scissors and the skin was stored at −20° C. until use. The skin was affixed between the two compartments of the glass diffusion cell (Laboratory Glass Apparatus, Model #LG-1084-LPCT). This allowed an exposed skin area of 5 cm^2 over a receptor compartment volume of 4.5 ml. The diffusion cell was maintained at 37° C.
Penetration Conditions • Topical application intervals were 8 and 16 hrs. The cells were covered with parafilm and shielded from light by aluminum wrap. A receptor fluid of phosphate buffered saline (PBS) was spun at 60 rpm.
Applied Formulations • Riboflavin monophosphate-calcium phosphate particles were prepared to deliver 0.35-1.15 mg riboflavin (20-38% suspensions). • Riboflavin monophosphate in PBS was prepared at 1.5 mg/mL to deliver 0.3-0.45 mg riboflavin. • Formulations were applied by pipette in volumes of 50-100 μl. Riboflavin-calcium phosphate complex applications were allowed to air dry and then equal volume of 0.5 M sodium acetate buffer was pipetted onto the application site. […]
Sample Collection • The skin surface, while still retained in the diffusion cell, was washed twice with 1 mL PBS each time. The skin was removed from diffusion cell and dried and analyzed.
Sample Analysis • Washes and Receptor fluid: The approximate volume of the fluids was determined. […] The supernatant was then removed and analyzed by UV spectrometer. If the UV absorbance was saturated (over >2.0), the samples were diluted with water. The UV absorbance value at 370 nm was recorded. • Skin: The skin was minced and mixed with 5 ml of 10% trichloracetic acid solution. […] If the UV absorbance was saturated (over >2.0), samples were diluted with water. The maximum UV absorbance value at 370 nm was recorded.

Optimum pH ([1]; Loading Solvent Water): 7
Molecule: Hyaluronic acid Sodium salt

Argireline bound ([2]; No pretreatment, pH 7.39): 0.09 mg/g | Argireline bound ([2]; No pretreatment, pH 10.46): 0.05 mg/g | Argireline bound ([2]; SLS treated particles, pH 7.85): 1.19 mg/g | Argireline bound ([2]; SLS treated particles, pH 10.10): 2.15 mg/g | Optimum pH ([1]; Loading Solvent Water): 6.7-7.8 and 7.8 and 6.4
Molecule: Acetyl Hexapeptide-8 [Argireline]

TPNa in the binding suspension attached to calcium phosphate particles ([3]; 0.5 mg/ml TPNa in water): Approximately 100% | integrity of released TPNa (UV spectroscopy) ([3]; released in 60% ethanol): identical to an unbound control
Molecule: Cc1c(C)c2c(c(C)c1OP(=O)([O-])[O-])CCC(C)(CCCC(C)CCCC(C)CCCC(C)C)O2.[Na+].[Na+] (stereo not shown) [TPNa, Sodium Tocopheryl Phosphate]

delivery depth in stratum corneum ([4]; STAY C50-calcium phosphate particle formulation): 10th layer of stratum corneum
Molecule: O=C1O[C@H]([C@@H](O)CO)C([O-])=C1OP(=O)([O-])[O-].[Na+].[Na+].[Na+] [STAY-C50, Sodium Ascorbyl Phosphate]

saturated solution concentration ([5]; in DMSO): 20.65 mg/mL | saturated solution concentration ([5]; in ethanol): 0.087 mg/mL | Binding capacity of Adapalene to calcium phosphate particles ([6]; in DMSO): 12.55 mg/g | Binding capacity of Adapalene to calcium phosphate particles ([6]; in ethanol): 0.78 mg/g | Optimum pH ([1]; Loading Solvent DMSO): 7 | Optimum pH ([1]; Loading Solvent Ethanol): 11 and 7
Molecule: COc1ccc(-c2ccc3cc(C(=O)O)ccc3c2)cc1C12CC3CC(CC(C3)C1)C2 [Adapalene]

Molecule: Lysozyme: Lysozyme, MP biomedicals LLC
lysozyme release from calcium phosphate particles ([7]; pH 4.8 (0.5 M sodium acetate)): most of the lysozyme releasing within the first hour | lysozyme release from calcium phosphate particles ([7]; pH 7.0 (10 mM Bis Tris)): no lysozyme is observed released | depth of detection ([4]; lysozyme-calcium phosphate particle formulation): 6 tape strips | Lysozyme bound to calcium phosphate particles [8]: 6.8 mg/g

Salicylic acid Bound ([9]; pH 5.99): 0 µg/g | Salicylic acid Bound ([9]; pH 7.07): 23.8 µg/g | Salicylic acid Bound ([9]; pH 7.47): 97.5 µg/g | Salicylic acid Bound ([9]; pH 8.34): 660.4 µg/g | Salicylic acid Bound ([9]; pH 11.36): 1141.14 µg/g | Optimum pH ([1]; Loading Solvent Ethanol/water): 4.03-7.90
Molecule: O=C(O)c1ccccc1O [Salicylic acid]

activity of ascorbic acid, 2 um ([10]; 0 hrs): 100% | activity of ascorbic acid, 2 um ([10]; 0.5 hrs): 85% | activity of ascorbic acid, 2 um ([10]; 2 hrs): 59% | activity of ascorbic acid, 2 um ([10]; 3 hrs): 48% | activity of ascorbic acid, 2 um ([10]; 5 hrs): 35% | activity of ascorbic acid, Control ([10]; 0 hrs): 100% | activity of ascorbic acid, Control ([10]; 0.5 hrs): 36% | activity of ascorbic acid, Control ([10]; 2 hrs): 18% | activity of ascorbic acid, Control ([10]; 5 hrs): 0% | Optimum pH ([1]; Loading Solvent Water): >8.12
Molecule: O=C1O[C@H]([C@@H](O)CO)C(O)=C1O [Ascorbic acid]

Optimum pH ([1]; Loading Solvent Water): 7
Molecule: Cc1c(C)c2c(c(C)c1OP(=O)([O-])OC1=C(O)[C@@H]([C@@H](O)CO)OC1=O)CC[C@@](C)(CCC[C@H](C)CCC[C@H](C)CCCC(C)C)O2.[K+] (racemic) [Sepivital, dl-a-tocopheryl 2 L ascorbyl phosphate]

Optimum pH ([1]; Loading Solvent Ethanol/water): 10
Molecule: Oc1ccc(C=Cc2cc(O)cc(O)c2)cc1 [Resveratrol]

release rate of the active versus aqueous solution ([11]; calcium phosphate particle complex): slower release of the active | penetration through skin (riboflavin metabolite in receptor fluid) ([11]; from aqueous solution (PBS)): penetrated through skin | penetration through skin (riboflavin metabolite in receptor fluid) ([11]; from calcium phosphate particle complex): penetrated through skin
Molecule: Riboflavin monophosphate
